In patent publication US11666656B2, “Polymeric conjugates and uses thereof” (Ramot at Tel-Aviv University Ltd., priority 2016, dated 2023):

Legend:
melanoma xenografts = conditions: cited from earlier work
mutant BRAF = conditions: cell lines; cited from earlier work
[1] = system: MEK and ERK phosphorylation; conditions: BRAF mutated cell lines; cited from earlier work
131/4-5B1 melanoma cells = assay: Proliferation of 131/4-5B1 melanoma cells (viable cell count); type: cell-based; conditions: Homo sapiens; 131/4-5B1 cells, 72 hours incubation
Procedure: 131/4-5B1 (human melanoma brain-metastasis cell line that was obtained from Dr. Kerbel' Lab) (15,000/well) were plated onto 24-well culture in RPMI medium supplemented with 10% FBS and incubated for 24 hours (37° C.; 5% CO2). The medium was then replaced with RPMI supplemented with 10% FBS. Cells were exposed to free selumetinib, free amine-modified dabrafenib (Scheme 8) or both, at a SLM-DBF mol ratio of 10:1 at serial dilutions. Number of viable cells was counted by a Z1 Coulter Counter® Cell and Particle Counter (Beckman Coulter®) following 72 hours incubation.
Inhibition of 131/4-5B1, human melanoma brain-metastasis cells by free selumetinib (SLM), free diol-modified dabrafenib (DBFdiol; see, Scheme 11), a combination of the free drugs at 3:1 SLM:DBFdiol mol ratio, PGA-SLM (see, Scheme 19), PGA-DBFdiol (see, Scheme 11), a combination of PGA-SLM and PGA-DBFdiol, and PGA-SLM-DBFdiol conjugate (see, Scheme 23) was determined.
131/4-5B1 cells (15,000/well) were plated onto 24-well culture in RPMI medium supplemented with 10% FBS and incubated for 24 hours (37° C.; 5% CO2). […] Cells were exposed to PGA-SLM conjugate, PGA-DBFdiol conjugate, to the combination of both at a SLM-DBF mol ratio of 10:1 and to the combined PGA-SLM-DBFdiol conjugate, calculated according to the SLM loading and assuming 10:1 mol ratio between SLM and DBF, at serial dilutions. […]

IC50 (131/4-5B1 melanoma cells) | SMILES | tumor regression (melanoma xenografts) | selectivity for mutant BRAF over wild-type BRAF (mutant BRAF) | inhibition of MEK and ERK phosphorylation [1]
– | CC(C)(C)c1nc(-c2cccc(NS(=O)(=O)c3c(F)cccc3F)c2F)c(-c2ccnc(N)n2)s1 [Dabrafenib] | induces tumor regression | more than 100 fold | dose-dependent inhibition
70 nM | Cn1cnc2c(F)c(Nc3ccc(Br)cc3Cl)c(C(=O)NOCCO)cc21 [SLM, Selumetinib] | – | – | –
